# Test results taken from ChEMBL document CHEMBL1773011, “New and more efficient multivalent glyco-ligands for asialoglycoprotein receptor of mammalian hepatocytes” (Bioorg Med Chem, 2011).
# Test: Displacement of Eu-DTPA labeled ASOR from rat primary hepatocytes Asialoglycoprotein receptor after 20 mins by fluorometric analysis
# Format: cell-based
# Conditions: hepatocyte
row,Structure (SMILES),IC50 [nM]
1,NCCCCC(C(=O)NCCCCCCOC1O[C@H](CO)[C@@H](O[C@@H]2O[C@H](CO)[C@H](O)[C@H](O)[C@H]2O)[C@H](O)[C@H]1O)N(CC(=O)NCCCCCCOC1O[C@H](CO)[C@@H](O[C@@H]2O[C@H](CO)[C@H](O)[C@H](O)[C@H]2O)[C@H](O)[C@H]1O)CC(=O)NCCCCCCOC1O[C@H](CO)[C@@H](O[C@@H]2O[C@H](CO)[C@H](O)[C@H](O)[C@H]2O)[C@H](O)[C@H]1O (some centres undefined),> 1000
2,"CC(=O)NC1C(OCCCCCCNC(=O)CNC(=O)C[C@H](NC(=O)[C@H](CC(=O)NCC(=O)NCCCCCCOC2O[C@@H](CO)[C@@H](O)[C@@H](O)C2NC(C)=O)NC(=O)[C@@H](N)Cc2ccc(O)cc2)C(=O)NCC(=O)NCCCCCCOC2O[C@@H](CO)[C@@H](O)[C@@H](O)C2NC(C)=O)O[C@@H](CO)[C@@H](O)[C@H]1O (single isomer, unassigned)",20
3,CC(=O)N[C@H]1C(OCCCCCCNC(=O)CNC(=O)CN(CC(=O)NCC(=O)NCCCCCCOC2O[C@H](CO)[C@H](O)[C@H](O)[C@H]2NC(C)=O)C(CCCCNC(=O)OCc2ccccc2)C(=O)NCC(=O)NCCCCCCOC2O[C@H](CO)[C@H](O)[C@H](O)[C@H]2NC(C)=O)O[C@H](CO)[C@H](O)[C@@H]1O (stereo in doubt),1
4,CC(=O)N[C@@H]1C(OCCCCCCNC(=O)C(CCCCNC(=O)OCc2ccccc2)N(CC(=O)NCCCCCCOC2O[C@H](CO)[C@H](O)[C@H](O)[C@H]2NC(C)=O)CC(=O)NCCCCCCOC2O[C@H](CO)[C@H](O)[C@H](O)[C@H]2NC(C)=O)O[C@@H](CO)[C@@H](O)[C@H]1O (stereo in doubt),12
